Laboratory results as given in PubChem BioAssay AID256 (DTP/NCI, 2004).
Where “and” joins values, the source holds several entries; their conditions need not be identical. Equal values may be shown once. Toxic doses and inconclusive results are not listed. How the source made its calls: active means survival T/C of 150% or more; inactive means T/C below 125% in these data.

Tested on: CD2F1 mice, L1210 leukemia ip, survival T/C
Assay: NCI In Vivo Anticancer Drug Screen. Data for tumor model L1210 Leukemia (intraperitoneal) in CD2F1 (CDF1) mice
Conditions: higher = longer survival
Summary of the method: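 Compound-dosed mice with transplantable tumor versus matched vehicle controls; endpoint ratio T/C reported.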

[1] = endpoint: mean survival time, dose: 100.0 mg/kg/injection, schedule: Q01DX009 (ip), vehicle: saline with Tween-80
[2] = endpoint: mean survival time, dose: 200.0 mg/kg/injection, schedule: Q01DX009 (ip), vehicle: saline with Tween-80
[3] = endpoint: mean survival time, dose: 400.0 mg/kg/injection, schedule: Q01DX009 (ip), vehicle: saline with Tween-80
[4] = endpoint: mean survival time, dose: 100.0 mg/kg/injection, schedule: Q04DX003 (ip), vehicle: saline with Tween-80
[5] = endpoint: mean survival time, dose: 200.0 mg/kg/injection, schedule: Q04DX003 (ip), vehicle: saline with Tween-80
[6] = endpoint: mean survival time, dose: 400.0 mg/kg/injection, schedule: Q04DX003 (ip), vehicle: saline with Tween-80
[7] = endpoint: mean survival time, dose: 25.0 mg/kg/injection, schedule: Q04DX002 (ip), vehicle: saline with Tween-80
[8] = endpoint: mean survival time, dose: 50.0 mg/kg/injection, schedule: Q04DX002 (ip), vehicle: saline with Tween-80
[9] = endpoint: mean survival time, dose: 100.0 mg/kg/injection, schedule: Q01DX001 (ip), vehicle: saline
[10] = endpoint: mean survival time, dose: 100.0 mg/kg/injection, schedule: Q04DX003 (ip), vehicle: saline
[11] = endpoint: mean survival time, dose: 200.0 mg/kg/injection, schedule: Q01DX001 (ip), vehicle: saline
[12] = endpoint: mean survival time, dose: 200.0 mg/kg/injection, schedule: Q04DX003 (ip), vehicle: saline
[13] = endpoint: mean survival time, dose: 400.0 mg/kg/injection, schedule: Q01DX001 (ip), vehicle: saline
[14] = endpoint: mean survival time, dose: 400.0 mg/kg/injection, schedule: Q04DX003 (ip), vehicle: saline
[15] = endpoint: mean survival time, dose: 12.5 mg/kg/injection, schedule: Q01DX009 (ip), vehicle: saline with Tween-80
[16] = endpoint: mean survival time, dose: 25.0 mg/kg/injection, schedule: Q01DX009 (ip), vehicle: saline with Tween-80
[17] = endpoint: mean survival time, dose: 50.0 mg/kg/injection, schedule: Q01DX009 (ip), vehicle: saline with Tween-80
[18] = endpoint: mean survival time, dose: 100.0 mg/kg/injection, schedule: Q04DX002 (ip), vehicle: saline with Tween-80
[19] = endpoint: mean survival time, dose: 200.0 mg/kg/injection, schedule: Q04DX002 (ip), vehicle: saline with Tween-80

Measured: T/C

CSC1SCC2C(=O)N(C)C(C(C)C)C(=O)OCC(NC(=O)c3cnc4ccccc4n3)C(=O)NC(C)C(=O)N(C)C1C(=O)N(C)C(C(C)C)C(=O)OCC(NC(=O)c1cnc3ccccc3n1)C(=O)NC(C)C(=O)N2C (stereo unspecified)
inactive: endpoint: mean survival time, dose: 4.0 micrograms/kg/injection, schedule: Q01DX009 (ip), vehicle: saline 105 % of control | endpoint: mean survival time, dose: 8.0 micrograms/kg/injection, schedule: Q01DX009 (ip), vehicle: saline 107 % of control | endpoint: mean survival time, dose: 15.0 micrograms/kg/injection, schedule: Q01DX009 (ip), vehicle: saline 102 % of control | endpoint: mean survival time, dose: 16.0 micrograms/kg/injection, schedule: Q01DX009 (ip), vehicle: saline 111 % of control | endpoint: mean survival time, dose: 30.0 micrograms/kg/injection, schedule: Q01DX009 (ip), vehicle: saline 118 % of control | endpoint: mean survival time, dose: 32.0 micrograms/kg/injection, schedule: Q01DX009 (ip), vehicle: saline 92 % of control | endpoint: mean survival time, dose: 60.0 micrograms/kg/injection, schedule: Q01DX009 (ip), vehicle: saline 108 % of control | endpoint: mean survival time, dose: 120.0 micrograms/kg/injection, schedule: Q01DX009 (ip), vehicle: saline 86 % of control | endpoint: mean survival time, dose: 192.0 micrograms/kg/injection, schedule: Q01DX009 (ip), vehicle: saline 114 % of control | endpoint: median survival time, dose: 67.0 micrograms/kg/injection, schedule: Q01DX005 (ip), vehicle: saline 122 % of control | endpoint: median survival time, dose: 150.0 micrograms/kg/injection, schedule: Q01DX005 (ip), vehicle: saline 120 % of control and 123 % of control | endpoint: median survival time, dose: 200.0 micrograms/kg/injection, schedule: Q01DX005 (ip), vehicle: saline 106 % of control

O=C(Nc1ccc(Br)c2c(NC(=O)c3ccccc3)ccc(Br)c12)c1ccccc1
inactive: [1] 88 % of control and 93 % of control | [2] 97 % of control | [3] 93 % of control

CN(C)c1ccc(N=Nc2nccs2)cc1
inactive: endpoint: mean survival time, dose: 18.7 mg/kg/injection, schedule: Q04DX003 (ip), vehicle: saline with Tween-80 86 % of control | endpoint: mean survival time, dose: 37.5 mg/kg/injection, schedule: Q04DX003 (ip), vehicle: saline with Tween-80 102 % of control | endpoint: mean survival time, dose: 75.0 mg/kg/injection, schedule: Q04DX003 (ip), vehicle: saline with Tween-80 96 % of control

O=Cc1cc(=O)[nH]c2ccccc12
inactive: [4] 96 % of control | [5] 98 % of control | [6] 100 % of control

O=C1CCCN1c1ccc([N+](=O)[O-])cc1
inactive: endpoint: mean survival time, dose: 12.5 mg/kg/injection, schedule: Q04DX002 (ip), vehicle: saline with Tween-80 102 % of control | [7] 102 % of control | [8] 102 % of control | endpoint: mean survival time, dose: 100.0 mg/kg/injection, schedule: Q01DX001 (ip), vehicle: saline with Tween-80 110 % of control | [1] 98 % of control | endpoint: mean survival time, dose: 200.0 mg/kg/injection, schedule: Q01DX001 (ip), vehicle: saline with Tween-80 104 % of control | [2] 98 % of control | endpoint: mean survival time, dose: 400.0 mg/kg/injection, schedule: Q01DX001 (ip), vehicle: saline with Tween-80 101 % of control | [3] 106 % of control

O=C(NNCN1C(=O)c2ccccc2C1=O)c1ccccc1
inactive: [9] 98 % of control | [10] 100 % of control | [11] 104 % of control | [12] 100 % of control | [13] 100 % of control | [14] 103 % of control

O=C1NCC(Br)C(=O)N1 (stereo unspecified)
inactive: endpoint: mean survival time, dose: 6.25 mg/kg/injection, schedule: Q01DX009 (ip), vehicle: saline + Tween-80 + alcohol 102 % of control | endpoint: mean survival time, dose: 12.5 mg/kg/injection, schedule: Q01DX009 (ip), vehicle: saline + Tween-80 + alcohol 100 % of control and 109 % of control | [15] 93 % of control | endpoint: mean survival time, dose: 25.0 mg/kg/injection, schedule: Q01DX009 (ip), vehicle: saline + Tween-80 + alcohol 93 % of control and 100 % of control | [16] 96 % of control | endpoint: mean survival time, dose: 50.0 mg/kg/injection, schedule: Q01DX009 (ip), vehicle: saline + Tween-80 + alcohol 102 % of control | [17] 94 % of control | endpoint: mean survival time, dose: 100.0 mg/kg/injection, schedule: Q01DX009 (ip), vehicle: saline + Tween-80 + alcohol 101 % of control and 105 % of control | [1] 102 % of control | endpoint: mean survival time, dose: 200.0 mg/kg/injection, schedule: Q01DX009 (ip), vehicle: saline + Tween-80 + alcohol 113 % of control and 100 % of control | [2] 90 % of control | endpoint: mean survival time, dose: 400.0 mg/kg/injection, schedule: Q01DX009 (ip), vehicle: saline + Tween-80 + alcohol 86 % of control

O=CC1C(=O)Nc2ccccc21 (stereo unspecified)
inactive: [17] 96 % of control | [1] 96 % of control | [2] 104 % of control

CNc1ccc(Br)c2c1C(=O)c1ccccc1C2=O
inactive: [4] 97 % of control | [5] 101 % of control | [6] 95 % of control

CC1=CCC(O)(C(C)C)CC1 (stereo unspecified)
inactive: [10] 96 % of control | [12] 98 % of control | [14] 102 % of control

CC1=C(C)CN(c2ccccc2)SC1
inactive: [4] 98 % of control | [5] 98 % of control | [6] 98 % of control

Cc1cc(C)c(B(c2c(C)cc(C)cc2C)c2c(C)cc(C)cc2C)c(C)c1
inactive: [1] 100 % of control | [2] 94 % of control | [5] 90 % of control | [3] 94 % of control | [6] 96 % of control

CS(=O)(=O)c1ncc(Br)cn1
inactive: endpoint: mean survival time, dose: 3.12 mg/kg/injection, schedule: Q01DX009 (ip), vehicle: saline with Tween-80 101 % of control | endpoint: mean survival time, dose: 3.13 mg/kg/injection, schedule: Q01DX009 (ip), vehicle: saline with Tween-80 101 % of control | endpoint: mean survival time, dose: 6.25 mg/kg/injection, schedule: Q01DX009 (ip), vehicle: saline with Tween-80 101 % of control and 106 % of control | [15] 101 % of control and 102 % of control | [16] 95 % of control and 107 % of control | [17] 103 % of control and 104 % of control | [1] 104 % of control and 108 % of control

Cc1ccc(C2(O)c3ccccc3C(=O)N2c2ccccc2C)cc1 (stereo unspecified)
inactive: [1] 100 % of control | [4] 104 % of control | [2] 93 % of control | [5] 104 % of control | [3] 102 % of control | [6] 106 % of control

OC1C2c3ccccc3C(c3c2ccc2ccccc32)C1O (stereo unspecified)
inactive: endpoint: median survival time, dose: 25.0 mg/kg/injection, schedule: Q04DX003 (ip), vehicle: saline with Tween-80 100 % of control | endpoint: median survival time, dose: 50.0 mg/kg/injection, schedule: Q04DX003 (ip), vehicle: saline with Tween-80 100 % of control | endpoint: median survival time, dose: 100.0 mg/kg/injection, schedule: Q04DX003 (ip), vehicle: saline with Tween-80 100 % of control | endpoint: median survival time, dose: 200.0 mg/kg/injection, schedule: Q04DX003 (ip), vehicle: saline with Tween-80 88 % of control

CN1C(=O)C=CC1=O (tested in a mixture with another compound)
inactive: [7] 103 % of control | [8] 91 % of control | [18] 95 % of control | [19] 91 % of control

CC1=C(c2ccccc2)OS(=O)(=O)NC1=O
inactive: endpoint: mean survival time, dose: 12.5 mg/kg/injection, schedule: Q01DX009 (ip), vehicle: water 93 % of control | endpoint: mean survival time, dose: 25.0 mg/kg/injection, schedule: Q01DX009 (ip), vehicle: water 91 % of control | endpoint: mean survival time, dose: 50.0 mg/kg/injection, schedule: Q01DX009 (ip), vehicle: water 93 % of control | endpoint: mean survival time, dose: 100.0 mg/kg/injection, schedule: Q01DX009 (ip), vehicle: water 93 % of control | endpoint: mean survival time, dose: 200.0 mg/kg/injection, schedule: Q01DX009 (ip), vehicle: water 88 % of control

Cc1c(Cl)cccc1NC(=O)/C=C/c1ccccc1
inactive: [18] 94 % of control | [19] 102 % of control | endpoint: mean survival time, dose: 400.0 mg/kg/injection, schedule: Q04DX002 (ip), vehicle: saline with Tween-80 94 % of control

CCCCCCCCCCCCNC(=O)c1ccc[n+](Cc2ccc(Cl)c(Cl)c2)c1
inactive: [15] 98 % of control | endpoint: mean survival time, dose: 12.5 mg/kg/injection, schedule: Q04DX003 (ip), vehicle: saline sonified 98 % of control | endpoint: mean survival time, dose: 25.0 mg/kg/injection, schedule: Q04DX003 (ip), vehicle: saline sonified 98 % of control | endpoint: mean survival time, dose: 50.0 mg/kg/injection, schedule: Q04DX003 (ip), vehicle: saline sonified 95 % of control

NC(=O)CCC(=O)NCCN1CC1
inactive: endpoint: mean survival time, dose: 25.0 mg/kg/injection, schedule: Q04DX003 (ip), vehicle: saline 97 % of control | endpoint: mean survival time, dose: 50.0 mg/kg/injection, schedule: Q04DX003 (ip), vehicle: saline 97 % of control | [9] 104 % of control | [10] 96 % of control | [11] 98 % of control | [13] 115 % of control

Cn1c(C[N+](C)(C)C)cc2ccccc21
inactive: endpoint: mean survival time, dose: 50.0 mg/kg/injection, schedule: Q01DX009 (ip), vehicle: saline 90 % of control | endpoint: mean survival time, dose: 100.0 mg/kg/injection, schedule: Q01DX009 (ip), vehicle: saline 93 % of control
